# Like-named read-outs stand apart in the source and are kept apart here.
# What was measured:
# Format in all cases: cell-based
# [1] = test system: Pseudomonas aeruginosa H 10; conditions: H10, agar serial dilution, 24 hours at 37°C
# [2] = test system: Salmonella dublin P 43; conditions: Salmonella enterica, P43; agar serial dilution, 24 hours at 37°C
# [3] = test system: Proteus mirabilis H 3; conditions: H3, agar serial dilution, 24 hours at 37°C
# [4] = test system: Pseudomonas aeruginosa 2396; conditions: agar serial dilution, 24 hours at 37°C
# [5] = test system: Proteus mirabilis A 1200; conditions: A1200, agar serial dilution, 24 hours at 37°C
# [6] = test system: Pseudomonas aeruginosa Wyeth A 1058; conditions: WYETHA1058, agar serial dilution, 24 hours at 37°C
# [7] = test system: Staphylococcus aureus A 355'; conditions: agar serial dilution, 24 hours at 37°C
# [8] = test system: Diplococcus pneumoniae L 54; conditions: Streptococcus pneumoniae, L54; agar serial dilution, 24 hours at 37°C
# [9] = test system: Proteus rettgeri A 821; conditions: Providencia rettgeri, A821; agar serial dilution, 24 hours at 37°C
# [10] = test system: Klebsiella pneumoniae A 809; conditions: A809, agar serial dilution, 24 hours at 37°C
# [11] = test system: Staphylococcus aureus A 2000; conditions: A2000, agar serial dilution, 24 hours at 37°C
# [12] = test system: Escherichia coli U 20; conditions: U20, agar serial dilution, 24 hours at 37°C
# [13] = test system: Staphylococcus aureus A 321; conditions: A321, agar serial dilution, 24 hours at 37°C
# [14] = test system: Pasteurella multocida A 723; conditions: A723, agar serial dilution, 24 hours at 37°C
# [15] = test system: Staphylococcus aureus A 2001; conditions: A2001, agar serial dilution, 24 hours at 37°C
# [16] = test system: Salmonella typhimurium R172; conditions: Salmonella enterica, agar serial dilution, 24 hours at 37°C
# [17] = test system: Bacillus subtilis ATCC 6633; conditions: ATCC6633, agar serial dilution, 24 hours at 37°C
# [18] = test system: Streptococcus haemolyticus A 266; conditions: A266, agar serial dilution, 24 hours at 37°C
# [19] = test system: Salmonella typhimurium R 127; conditions: Salmonella enterica, agar serial dilution, 24 hours at 37°C
# [20] = test system: Streptococcus faecalis L 80; conditions: Enterococcus faecalis, L80; agar serial dilution, 24 hours at 37°C
# [21] = test system: Proteus morganii 2241; conditions: Morganella morganii, agar serial dilution, 24 hours at 37°C
# [22] = test system: Streptococcus haemolyticus A 1088; conditions: A1088, agar serial dilution, 24 hours at 37°C
# [23] = test system: Proteus rettgeri A 821; assay: micro serial dilution test, MIC; conditions: Providencia rettgeri, A821; micro serial dilution (between brackets), 30°C or 37°C, about 18 hours
# [24] = test system: Haemophilus influenzae A 1030; assay: micro serial dilution test, MIC; conditions: A1030, micro serial dilution (between brackets), 30°C or 37°C, about 18 hours
Compound,MIC [1],MIC [2],MIC [3],MIC [4],MIC [5],MIC [6],MIC [7],MIC [8],MIC [9],MIC [10],MIC [11],MIC [12],MIC [13],MIC [14],MIC [15],MIC [16],MIC [17],MIC [20],MIC [21],MIC [22],further results
"CC1(C)S[C@@H]2[C@H](NC(=O)[C@H](NC(=O)NS(=O)(=O)Nc3ccccc3)c3ccccc3)C(=O)N2[C@H]1C(=O)O [VII, D-6-[α-{3-(phenylaminosulfonyl)-ureido}-benzylcarbonamido]-penicillanic acid]",50 µg/mL,12.5 µg/mL,3 µg/mL,25 µg/mL,3 µg/mL,50 µg/mL,25 µg/mL,1 µg/mL,1.5 µg/mL,25 µg/mL,12.5 µg/mL,12.5 µg/mL,1 µg/mL,25 µg/mL,3 µg/mL,,1 µg/mL,25 µg/mL,25 µg/mL,,MIC [18]: 1 µg/mL; MIC [19]: 25 µg/mL
"Cc1nnc(SCC2=C(C(=O)O)N3C(=O)[C@@H](NC(=O)Cn4cnnn4)[C@H]3SC2)s1 [cephazolin, reference compound]",> 100 µg/mL,1.5 µg/mL,6 µg/mL,> 100 µg/mL,6 µg/mL,> 100 µg/mL,1.5 µg/mL,0.25 µg/mL,,1.5 µg/mL,0.75 µg/mL,1.5 µg/mL,0.25 µg/mL,1.5 µg/mL,0.5 µg/mL,3 µg/mL,0.25 µg/mL,12.5 µg/mL,25 µg/mL,0.12 µg/mL,MIC [23]: 1.2 µg/mL
"CC(=O)OCC1=C(C(=O)O)N2C(=O)[C@@H](NC(=O)CC#N)[C@H]2SC1 [cephacetril, reference compound]",> 100 µg/mL,12.5 µg/mL,12.5 µg/mL,> 100 µg/mL,12.5 µg/mL,> 100 µg/mL,1.5 µg/mL,0.5 µg/mL,3 µg/mL,6 µg/mL,1.5 µg/mL,6 µg/mL,0.75 µg/mL,6 µg/mL,0.5 µg/mL,12.5 µg/mL,0.12 µg/mL,12.5 µg/mL,> 100 µg/mL,0.5 µg/mL,MIC [24]: 30 µg/mL

# The next lines start with results.
MIC [1],MIC [2],MIC [3],MIC [4],MIC [5],MIC [6],MIC [7],MIC [8],MIC [9],MIC [10],MIC [11],MIC [12],MIC [13],MIC [14],MIC [15],MIC [16],MIC [17],MIC [20],MIC [21],Compound,MIC [22],further results
> 100 µg/mL,0.8 µg/mL,3 µg/mL,50 µg/mL,3 µg/mL,> 100 µg/mL,1.5 µg/mL,0.05 µg/mL,3 µg/mL,50 µg/mL,1.5 µg/mL,3 µg/mL,0.1 µg/mL,0.2 µg/mL,0.75 µg/mL,3 µg/mL,0.025 µg/mL,,,"CC1(C)S[C@@H]2C(NC(=O)C(N)c3ccccc3)C(=O)N2[C@H]1C(=O)O (stereo partly drawn) [ampicillin, 6-(α-aminophenylacetamido) penicillanic acid, reference compound]",,
100 µg/mL,6 µg/mL,6 µg/mL,25 µg/mL,3 µg/mL,12.5 µg/mL,6 µg/mL,50 µg/mL,,12.5 µg/mL,6 µg/mL,6 µg/mL,,0.5 µg/mL,6 µg/mL,25 µg/mL,0.5 µg/mL,12.5 µg/mL,12.5 µg/mL,"CC1(C)S[C@@H]2[C@H](NC(=O)[C@H](NC(=O)NS(=O)(=O)NCc3ccccc3)c3ccccc3)C(=O)N2[C@H]1C(=O)O [XXXII, D-6-[α-{3-(benzylaminosulfonyl)-ureido}-benzylcarbonamido]-penicillanic acid]",0.25 µg/mL,MIC [24]: 23 µg/mL; MIC [23]: 0.025 µg/mL

# Reference: patent US3945994A, “Novel acid compounds” (Gist-Brocades N.V., priority 1973, dated 1976)
